According to US20250051363A1, “Substituted Pyrazolopyridines” (Neuro3 Therapeutics, Inc., priority 2023, published 2025):

The compounds below were run against LRRK2 wild-type (Homo sapiens (Human), UniProt Q5S007) (assay: LanthaScreen LRRK2 Biochemical Activity Assay). Conditions: human recombinant LRRK2 (amino acids 970-2527) wild-type, ATP 57 μM, TR-FRET; read-out: IC50 (nM), inhibition of LRRK2 wild-type kinase activity.
Method: The ability of a compound of Formula (I) to inhibit LRRK2 kinase activity is measured using a LanthaScreen™ kinase activity assay. In general, in a LanthaScreen™ kinase activity assay, kinase, fluorescein-labeled substrate, and ATP are allowed to react. Then EDTA (to stop the reaction) and terbium-labeled antibody (to detect phosphorylated product) are added. In a LanthaScreen™ kinase reaction, the antibody associates with the phosphorylated fluorescein labeled substrate resulting in an increased TR-FRET value. The TR-FRET value is a dimensionless number that is calculated as the ratio of the acceptor (fluorescein) signal to the donor (terbium) signal. The amount of antibody that is bound to the tracer is directly proportional to the amount of phosphorylated substrate present, and in this manner, kinase activity can be detected and measured by an increase in the TR-FRET value. Accordingly, in this Example, enzyme reactions are carried out in a kinase reaction buffer in the presence or absence of representative compounds of Formula (I) at various concentrations in 384-well plate at room temperature for 60 minutes. The kinase reaction buffer contains human recombinant LRRK2 protein (amino acids 970-2527, 5 nM), ATP (57 μM for LRRK2 wild-type, 134 μM for G2019S mutant protein), Fluorescein-LRRKtide substrate (0.4 mM), 50 mM Tris pH 7.5, 10 mM MgCl2, 1 mM EGTA, 0.01% Brij™-35, and 2 mM DTT. The final reaction volume for each reaction is 10 μL. The reactions are initated by adding the substrate and stopped by the addition of 10 μL of a TR-FRET dilution buffer supplemented with a kinase quench buffer (10 mM EDTA final) and Tb-anti-pLRRKtide (2 nM final). The plate is further incubated at room temperature for another 60 minutes, and the fluorescent signals are read on an EnVision® multilabel plate reader (PerkinElmer, Waltham, MA) with excitation at 340 nm and emission at 495 and 520 nm. The assay signal is determined as a ratio of FRET-specific signal measured with emission filter at 520 nm to that of the signal measured with Tb-specific emission filter at 495 nm. IC50 values for compound-mediated enzyme inhibition are calculated using appropriate programs in GraphPad Prism software by plotting the logarithm of the compound concentrations versus percent inhibition. All reagents are purchased from Thermo Fisher Scientific.

Sequence of LRRK2 wild-type (Q5S007 970-2527): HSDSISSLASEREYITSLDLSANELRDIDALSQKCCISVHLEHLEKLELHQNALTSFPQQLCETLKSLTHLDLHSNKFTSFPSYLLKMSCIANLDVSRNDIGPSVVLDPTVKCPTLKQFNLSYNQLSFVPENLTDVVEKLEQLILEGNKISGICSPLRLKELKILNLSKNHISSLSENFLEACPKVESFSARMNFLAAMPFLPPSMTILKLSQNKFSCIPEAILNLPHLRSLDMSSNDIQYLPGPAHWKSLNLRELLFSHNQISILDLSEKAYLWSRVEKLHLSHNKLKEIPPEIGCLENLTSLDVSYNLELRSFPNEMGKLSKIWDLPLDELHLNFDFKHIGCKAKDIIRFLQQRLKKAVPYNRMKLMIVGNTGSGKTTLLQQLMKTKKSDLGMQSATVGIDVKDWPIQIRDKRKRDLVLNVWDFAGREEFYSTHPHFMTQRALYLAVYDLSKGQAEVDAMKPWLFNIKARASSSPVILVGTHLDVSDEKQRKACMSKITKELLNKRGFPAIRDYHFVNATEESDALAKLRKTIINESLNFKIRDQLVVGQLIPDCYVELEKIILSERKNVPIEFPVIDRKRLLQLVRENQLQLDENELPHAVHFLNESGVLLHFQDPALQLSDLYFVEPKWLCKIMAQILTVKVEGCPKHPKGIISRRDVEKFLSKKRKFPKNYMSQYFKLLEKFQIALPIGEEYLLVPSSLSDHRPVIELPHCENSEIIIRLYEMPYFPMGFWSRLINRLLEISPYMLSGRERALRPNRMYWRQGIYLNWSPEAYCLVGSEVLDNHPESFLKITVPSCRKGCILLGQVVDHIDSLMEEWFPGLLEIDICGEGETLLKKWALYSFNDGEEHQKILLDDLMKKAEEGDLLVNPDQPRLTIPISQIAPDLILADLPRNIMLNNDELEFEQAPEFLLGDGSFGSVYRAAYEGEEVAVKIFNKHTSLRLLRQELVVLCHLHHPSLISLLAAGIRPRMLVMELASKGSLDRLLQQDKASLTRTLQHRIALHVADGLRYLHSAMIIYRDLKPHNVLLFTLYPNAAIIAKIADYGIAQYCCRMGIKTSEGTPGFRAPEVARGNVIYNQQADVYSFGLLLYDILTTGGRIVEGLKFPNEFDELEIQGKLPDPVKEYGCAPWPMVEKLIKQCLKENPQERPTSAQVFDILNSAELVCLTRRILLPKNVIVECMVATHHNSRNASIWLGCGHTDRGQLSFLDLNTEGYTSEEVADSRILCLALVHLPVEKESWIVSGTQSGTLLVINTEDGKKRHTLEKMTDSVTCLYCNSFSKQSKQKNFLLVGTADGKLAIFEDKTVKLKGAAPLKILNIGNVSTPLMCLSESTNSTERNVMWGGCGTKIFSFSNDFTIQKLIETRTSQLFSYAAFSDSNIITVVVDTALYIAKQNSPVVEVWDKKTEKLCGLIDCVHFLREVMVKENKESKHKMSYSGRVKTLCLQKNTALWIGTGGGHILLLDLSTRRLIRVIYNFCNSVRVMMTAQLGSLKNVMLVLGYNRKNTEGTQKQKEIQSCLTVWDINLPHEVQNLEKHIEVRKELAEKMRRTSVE

SMILES | IC50
Clc1ccn2ncc(-c3cccc(C4CCCNC4)n3)c2c1 (racemic) [Example 5, Rac-5-chloro-3-[6-(3-piperidyl)-2-pyridyl]pyrazolo[1,5-a]pyridine] | 11 to 100 nM
Clc1ccn2ncc(-c3cccc([C@@H]4CCCNC4)n3)c2c1 (single isomer, unassigned) [Example 6, (+)-5-chloro-3-(6-(piperidin-3-yl)pyridin-2-yl)pyrazolo[1,5-a]pyridine] | 101 to 400 nM
Clc1ccn2ncc(-c3cccc([C@H]4CCCNC4)n3)c2c1 (single isomer, unassigned) [Example 7, (−)-5-chloro-3-(6-(piperidin-3-yl)pyridin-2-yl)pyrazolo[1,5-a]pyridine] | ≤ 10 nM
c1cc(-c2cnn3ccccc23)nc(C2CCNCC2)c1 [Example 1, 3-[6-(4-piperidyl)-2-pyridyl]pyrazolo[1,5-a]pyridine] | 101 to 400 nM
CN1CCC(c2cccc(-c3cnn4ccccc34)n2)CC1 [Example 2, 3-[6-(1-methyl-4-piperidyl)-2-pyridyl]pyrazolo[1,5-a]pyridine] | 101 to 400 nM
c1cc(-c2cnn3ccccc23)nc(C2CCNC2)c1 (centres unmarked) [Example 3, 3-(6-pyrrolidin-3-yl-2-pyridyl)pyrazolo[1,5-a]pyridine] | 101 to 400 nM
Clc1ccn2ncc(-c3cccc(C4CCNC4)n3)c2c1 (centres unmarked) [Example 4, 5-chloro-3-(6-(pyrrolidin-3-yl)pyridin-2-yl)pyrazolo[1,5-a]pyridine] | 11 to 100 nM
Brc1ccn2ncc(-c3cccc(C4CCCNC4)n3)c2c1 (centres unmarked) [Example 8, 5-bromo-3-[6-(3-piperidyl)-2-pyridyl]pyrazolo[1,5-a]pyridine] | 11 to 100 nM
Cc1ccn2ncc(-c3cccc(C4CCCNC4)n3)c2c1 (centres unmarked) [Example 9, 5-methyl-3-[6-(3-piperidyl)-2-pyridyl]pyrazolo[1,5-a]pyridine] | 11 to 100 nM
FC(F)(F)c1ccn2ncc(-c3cccc(C4CCCNC4)n3)c2c1 (centres unmarked) [Example 10, 3-[6-(3-piperidyl)-2-pyridyl]-5-(trifluoromethyl)pyrazolo[1,5-a]pyridine] | 11 to 100 nM
COc1ccn2ncc(-c3cccc(C4CCCNC4)n3)c2c1 (centres unmarked) [Example 11, 5-methoxy-3-[6-(3-piperidyl)-2-pyridyl]pyrazolo[1,5-a]pyridine] | 11 to 100 nM
Oc1ccn2ncc(-c3cccc(C4CCCNC4)n3)c2c1 (centres unmarked) [Example 12, 3-(6-(piperidin-3-yl)pyridin-2-yl)pyrazolo[1,5-a]pyridin-5-ol] | 101 to 400 nM
CC(C)Oc1ccn2ncc(-c3cccc(C4CCCNC4)n3)c2c1 (centres unmarked) [Example 13, 5-isopropoxy-3-[6-(3-piperidyl)-2-pyridyl]pyrazolo[1,5-a]pyridine] | 11 to 100 nM
c1cc(-c2cnn3ccc(OCC4CC4)cc23)nc(C2CCCNC2)c1 (centres unmarked) [Example 14, 5-(cyclopropylmethoxy)-3-[6-(3-piperidyl)-2-pyridyl]pyrazolo[1,5-a]pyridine] | 101 to 400 nM
c1cc(-c2cnn3ccc(OCC4COC4)cc23)nc(C2CCCNC2)c1 (centres unmarked) [Example 15, 5-(oxetan-3-ylmethoxy)-3-[6-(3-piperidyl)-2-pyridyl]pyrazolo[1,5-a]pyridine] | 101 to 400 nM
c1cc(-c2cnn3ccc(N4CCOCC4)cc23)nc(C2CCCNC2)c1 (centres unmarked) [Example 16, 4-[3-[6-(3-piperidyl)-2-pyridyl]pyrazolo[1,5-a]pyridin-5-yl]morpholine] | 101 to 400 nM
N#Cc1ccn2ncc(-c3cccc(C4CCCNC4)n3)c2c1 (centres unmarked) [Example 17, 3-[6-(3-piperidyl)-2-pyridyl]pyrazolo[1,5-a]pyridine-5-carbonitrile] | 11 to 100 nM
c1cc(-c2cnn3ccc(C4CC4)cc23)nc(C2CCCNC2)c1 (centres unmarked) [Example 18, 5-cyclopropyl-3-[6-(3-piperidyl)-2-pyridyl]pyrazolo[1,5-a]pyridine] | 11 to 100 nM

SMILES | IC50
Nc1ccn2ncc(-c3cccc(C4CCCNC4)n3)c2c1 (centres unmarked) [Example 19, 3-[6-(3-piperidyl)-2-pyridyl]pyrazolo[1,5-a]pyridin-5-amine] | 101 to 400 nM
CNc1ccn2ncc(-c3cccc(C4CCCNC4)n3)c2c1 (centres unmarked) [Example 20, N-methyl-3-[6-(3-piperidyl)-2-pyridyl]pyrazolo[1,5-a]pyridin-5-amine] | ≤ 10 nM
CCNc1ccn2ncc(-c3cccc(C4CCCNC4)n3)c2c1 (centres unmarked) [Example 21, N-ethyl-3-[6-(3-piperidyl)-2-pyridyl]pyrazolo[1,5-a]pyridin-5-amine] | 11 to 100 nM
CS(=O)(=O)NCCC(=O)Nc1ccn2ncc(-c3cccc(C4CCCNC4)n3)c2c1 (centres unmarked) [Example 22, 3-(methylsulfonamido)-N-(3-(6-(piperidin-3-yl)pyridin-2-yl)pyrazolo[1,5-a]pyridin-5-yl)propanamide] | 11 to 100 nM
CS(=O)(=O)NCCC(=O)Nc1ccc2c(-c3cccc(C4CCCNC4)n3)cnn2c1 (centres unmarked) [Example 23, 3-(methanesulfonamido)-N-[3-[6-(3-piperidyl)-2-pyridyl]pyrazolo[1,5-a]pyridin-6-yl]propanamide] | 101 to 400 nM
CS(=O)(=O)NCCNC(=O)c1ccc2c(-c3cccc(C4CCCNC4)n3)cnn2c1 (centres unmarked) [Example 24, N-[2-(methanesulfonamido)ethyl]-3-[6-(3-piperidyl)-2-pyridyl]pyrazolo[1,5-a]pyridine-6-carboxamide] | 101 to 400 nM
CS(=O)(=O)NCC(=O)N1CCCC(c2cccc(-c3cnn4ccccc34)n2)C1 (centres unmarked) [Example 25, N-[2-oxo-2-[3-(6-pyrazolo[1,5-a]pyridin-3-yl-2-pyridyl)-1-piperidyl]ethyl]methanesulfonamide] | 101 to 400 nM
CS(=O)(=O)N1CCCC(c2cccc(-c3cnn4ccccc34)n2)C1 (centres unmarked) [Example 26, 3-[6-(1-methylsulfonyl-3-piperidyl)-2-pyridyl]pyrazolo[1,5-a]pyridine] | 101 to 400 nM
COc1cc(-c2cnn3ccccc23)nc(C2CCCNC2)c1 (centres unmarked) [Example 27, 3-(4-methoxy-6-(piperidin-3-yl)pyridin-2-yl)pyrazolo[1,5-a]pyridine] | 101 to 400 nM
Clc1cc(-c2cnn3ccccc23)nc(C2CCCNC2)c1 (centres unmarked) [Example 28, 3-(4-chloro-6-(piperidin-3-yl)pyridin-2-yl)pyrazolo[1,5-a]pyridine] | 11 to 100 nM
Clc1ccc(-c2cnn3ccccc23)nc1C1CCCNC1 (centres unmarked) [Example 29, 3-[5-chloro-6-(3-piperidyl)-2-pyridyl]pyrazolo[1,5-a]pyridine] | 11 to 100 nM
Clc1ccc(C2CCCNC2)nc1-c1cnn2ccccc12 (centres unmarked) [Example 30, 3-(3-chloro-6-(piperidin-3-yl)pyridin-2-yl)pyrazolo[1,5-a]pyridine] | 101 to 400 nM
Fc1cc(-c2cnn3ccccc23)nc(C2CCCNC2)c1 (centres unmarked) [Example 31, 3-[4-fluoro-6-(3-piperidyl)-2-pyridyl]pyrazolo[1,5-a]pyridine] | 101 to 400 nM
Fc1ccc(C2CCCNC2)nc1-c1cnn2ccccc12 (centres unmarked) [Example 32, 3-[3-fluoro-6-(3-piperidyl)-2-pyridyl]pyrazolo[1,5-a]pyridine] | 11 to 100 nM
Fc1ccc(-c2cnn3ccccc23)nc1C1CCCNC1 (centres unmarked) [Example 33, 3-[5-fluoro-6-(3-piperidyl)-2-pyridyl]pyrazolo[1,5-a]pyridine] | 101 to 400 nM
Clc1cc(-c2cnn3ccc(Cl)cc23)nc(C2CCCNC2)c1 (centres unmarked) [Example 34, 5-chloro-3-[4-chloro-6-(3-piperidyl)-2-pyridyl]pyrazolo[1,5-a]pyridine] | 11 to 100 nM
Fc1cc(-c2cnn3ccc(Cl)cc23)nc(C2CCCNC2)c1 (centres unmarked) [Example 35] | 11 to 100 nM
